The source of these data is patent US5585491A, “Antibacterial agents” (Otsuka Pharmaceutical Co., Ltd., priority 1995, dated 1996).

In brackets after ≈: the same amount, converted by molar mass. Read-outs that look alike come from different tables or passages of the source.

Holding throughout (experiment): In vitro antibacterial activity, microtitration dilution method (MIC)
Type in all cases: cell-based

The subject of test [1] is Enterobacter cloacae MA 2646. The source says: (§1) The compounds of the invention display antibacterial activity when tested by the microtitration dilution method as described in Heifetz, et al, Antimicr. Agents & Chemoth., 6, 124 (1974), which is incorporated herein by reference. By use of this method, the followed minimum inhibitory concentration values (MICs in μg/mL) were obtained for representative compounds of the invention.

Test [2] deals with Escherichia coli Vogel. To be noted: Escherichia coli Vogel, microtitration dilution; read-out: Minimal Inhibitory Concentration MIC.
Text: as §1

The test system of test [3] is Providencia rettgeri M 1771. To be noted: M1771; Providencia rettgeri M 1771, microtitration dilution; read-out: Minimal Inhibitory Concentration MIC.
Text: as §1

The test system of test [4] is Staphylococcus aureus H 228. The conditions noted are these: H228; Staphylococcus aureus H 228, microtitration dilution; read-out: Minimal Inhibitory Concentration MIC.
Text: as §1

Test [5] has as its system Streptococcus pyogenes C-203. The conditions noted are these: C203; Streptococcus pyogenes C-203, microtitration dilution; read-out: Minimal Inhibitory Concentration MIC.
Text: as §1

The test system of test [6] is Klebsiella pneumoniae MGH-2. The source says:
(§2) Agents & Chemoth., 6, 124 (1974), which is incorporated herein by reference.

In test [7] the test system is Pseudomonas aeruginosa UI-18.
Text: as §2

The test system of test [8] is Staphylococcus aureus UC-76. The conditions noted are these: UC76; Staphylococcus aureus UC-76, microtitration dilution; read-out: Minimal Inhibitory Concentration MIC.
Text: as §2

Test [9] deals with Streptococcus faecalis MGH-2. To be noted: Enterococcus faecalis, MGH2; Streptococcus faecalis MGH-2, microtitration dilution; read-out: Minimal Inhibitory Concentration MIC.
Text: as §2

Test [10] relates to Streptococcus pneumoniae SV-1. The conditions noted are these: SV1; Streptococcus pneumoniae SV-1, microtitration dilution; read-out: Minimal Inhibitory Concentration MIC.
Text: as §2

[11] abbreviates: MA2646, Enterobacter cloacae MA 2646, microtitration dilution, read-out: Minimal Inhibitory Concentration MIC.
Setting [12] is: MGH2, Klebsiella pneumoniae MGH-2, microtitration dilution, read-out: Minimal Inhibitory Concentration MIC.
Setting [13] is: UI18, Pseudomonas aeruginosa UI-18, microtitration dilution, read-out: Minimal Inhibitory Concentration MIC.

For the molecule `CCNCC1CCN(c2c(F)c(C)c3c(=O)c(C(=O)O)cn(C4CC4)c3c2F)C1` (stereo not drawn) [Ex. 3, 1-Cyclopropyl-7-[3-[(ethylamino)methyl]-1-pyrrolidinyl]-6,8-difluoro-1,4-dihydro-5-methyl-4-oxo-3-quinolinecarboxylic acid], the MIC was determined as 0.1 µg/mL (≈ 0.247 µM) in [1] (setting [11]); 0.05 µg/mL (≈ 0.123 µM) in test [2]; 0.2 µg/mL (≈ 0.493 µM) in test [3]; 0.013 µg/mL (≈ 0.0321 µM) in test [4]; 0.006 µg/mL (≈ 0.0148 µM) in test [5]; 0.1 µg/mL (≈ 0.247 µM) in [6] (setting [12]). Moreover, the MIC was determined as 0.8 µg/mL (≈ 1.97 µM) in test [7] (setting [13]), 0.003 µg/mL (≈ 0.0074 µM) in [8], 0.025 µg/mL (≈ 0.0617 µM) in test [9] and 0.003 µg/mL (≈ 0.0074 µM) in test [10].
As for `Cc1c(F)c(N2CCNCC2)c(F)c2c1c(=O)c(C(=O)O)cn2C1CC1` [Ex. 1, 1-Cyclopropyl-6,8-difluoro-1,4-dihydro-5-methyl-4-oxo-7-(1-piperazinyl)-3-quinolinecarboxylic acid], the MIC in [1] (setting [11]) amounted to 0.025 µg/mL (≈ 0.0688 µM); in [2] it was 0.025 µg/mL (≈ 0.0688 µM); in test [3], 0.05 µg/mL (≈ 0.138 µM); in [4] it was 0.025 µg/mL (≈ 0.0688 µM); in [5] it was 0.05 µg/mL (≈ 0.138 µM); in [6] (setting [12]), 0.025 µg/mL (≈ 0.0688 µM). Besides, the MIC came out at 0.2 µg/mL (≈ 0.55 µM) in test [7] (setting [13]), 0.025 µg/mL (≈ 0.0688 µM) in [8], 0.05 µg/mL (≈ 0.138 µM) in test [9] and 0.025 µg/mL (≈ 0.0688 µM) in test [10].
For `Cc1c(F)c(N2CCC(N)C2)c(F)c2c1c(=O)c(C(=O)O)cn2C1CC1` (stereo not drawn) [Ex. 2, 7-(3-Amino-1-pyrrolidinyl)-1-cyclopropyl-6,8-difluoro-1,4-dihydro-5-methyl-4-oxo-3-quinolinecarboxylic acid], the MIC in test [1] (setting [11]) turned out to be 0.006 µg/mL (≈ 0.0165 µM); in test [2] it was 0.006 µg/mL (≈ 0.0165 µM); in test [3], 0.025 µg/mL (≈ 0.0688 µM); in [4] it was 0.013 µg/mL (≈ 0.0358 µM); in test [5], 0.013 µg/mL (≈ 0.0358 µM); in test [6] (setting [12]), 0.013 µg/mL (≈ 0.0358 µM). In addition, the MIC in test [7] (setting [13]) worked out at 0.4 µg/mL (≈ 1.1 µM); in test [8], 0.003 µg/mL (≈ 0.00826 µM); in test [9], 0.025 µg/mL (≈ 0.0688 µM); in [10], 0.003 µg/mL (≈ 0.00826 µM).
For `Cc1c(F)c(N2CCNC(C)C2)c(F)c2c1c(=O)c(C(=O)O)cn2C1CC1` (stereo not drawn) [Ex. 5, 1-Cyclopropyl-6,8-difluoro-1,4-dihydro-5-methyl-7-[3-methyl-1-piperazinyl]-4-oxo-3-quinolinecarboxylic acid], the MIC turned out to be 0.025 µg/mL (≈ 0.0662 µM) in test [1] (setting [11]); 0.05 µg/mL (≈ 0.132 µM) in test [2]; 0.1 µg/mL (≈ 0.265 µM) in test [3]; 0.025 µg/mL (≈ 0.0662 µM) in test [4]; 0.006 µg/mL (≈ 0.0159 µM) in test [5]; 0.05 µg/mL (≈ 0.132 µM) in [6] (setting [12]). Besides, the MIC is 0.4 µg/mL (≈ 1.06 µM) in [7] (Pseudomonas aeruginosa, UI18, read-out: Minimal Inhibitory Concentration MIC); 0.013 µg/mL (≈ 0.0344 µM) in test [8]; 0.1 µg/mL (≈ 0.265 µM) in test [9]; 0.025 µg/mL (≈ 0.0662 µM) in [10].
As to `Cc1c(F)c(N2CCC(C)(CN)C2)c(F)c2c1c(=O)c(C(=O)O)cn2C1CC1` (stereo not drawn) [Ex. 4, 7-[3-(Aminomethyl)-3-methyl-1-pyrrolidinyl]-1-cyclopropyl-6,8-difluoro-1,4-dihydro-5-methyl-4-oxo-3-quinolinecarboxylic acid], the MIC turned out to be 0.05 µg/mL (≈ 0.128 µM) in [1] (Enterobacter cloacae, MA2646, read-out: Minimal Inhibitory Concentration MIC); 0.05 µg/mL (≈ 0.128 µM) in [2]; 0.2 µg/mL (≈ 0.511 µM) in [3]; 0.006 µg/mL (≈ 0.0153 µM) in [4]; 0.003 µg/mL (≈ 0.00766 µM) in [5]; 0.1 µg/mL (≈ 0.255 µM) in test [6] (Klebsiella pneumoniae, MGH2, read-out: Minimal Inhibitory Concentration MIC). The MIC in test [7] (setting [13]) turned out to be 0.8 µg/mL (≈ 2.04 µM); in [8], 0.003 µg/mL (≈ 0.00766 µM); in test [9] it was 0.025 µg/mL (≈ 0.0639 µM); in [10] it was 0.003 µg/mL (≈ 0.00766 µM).
Regarding `Cc1c(F)c(N2CCNCC2)cc2c1c(=O)c(C(=O)O)cn2C1CC1` [Ex. 6, 1-Cyclopropyl-6-fluoro-1,4-dihydro-5-methyl-4-oxo-7-(1-piperazinyl)-3-quinolinecarboxylic acid], the MIC in test [1] (setting [11]) turned out to be 0.013 µg/mL (≈ 0.0376 µM); in test [2], 0.013 µg/mL (≈ 0.0376 µM); in test [3] it was 0.1 µg/mL (≈ 0.29 µM); in [4], 0.1 µg/mL (≈ 0.29 µM); in [5], 0.1 µg/mL (≈ 0.29 µM); in test [6] (setting [12]), 0.05 µg/mL (≈ 0.145 µM). Further, the MIC came to 0.2 µg/mL (≈ 0.579 µM) in [7] (setting [13]), 0.025 µg/mL (≈ 0.0724 µM) in test [8], 0.05 µg/mL (≈ 0.145 µM) in [9] and 0.05 µg/mL (≈ 0.145 µM) in test [10].
